The record followed here is patent US12247015B2, “3-amino-4H-benzo[e][1,2,4]thiadiazine 1,1-dioxide derivatives as inhibitors of MRGX2” (Solent Therapeutics, LLC, priority 2019, dated 2025).

The target of experiment [1] is hMRGX2 (CHO-K1 cells overexpressing MRGX2) (Homo sapiens (Human), UniProt Q96LB1). In words: In vitro inhibition (EC50) of intracellular calcium flux, FLIPR Tetra, substance P stimulation. The format is cell-based. The conditions noted are these: stimulated with MRGX2 ligand substance P, FLIPR Calcium 5, read-out: hMRGX2 Cellular Potency (pEC50) (converted). The procedure, abridged: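 CHO-K1 cells overexpressing human MRGX2, loaded with Calcium 5 dye for 30 min at 37 °C, then given compound (11-point, top 10 μM).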
Sequence of hMRGX2 (CHO-K1 cells overexpressing MRGX2) (Q96LB1 whole entry): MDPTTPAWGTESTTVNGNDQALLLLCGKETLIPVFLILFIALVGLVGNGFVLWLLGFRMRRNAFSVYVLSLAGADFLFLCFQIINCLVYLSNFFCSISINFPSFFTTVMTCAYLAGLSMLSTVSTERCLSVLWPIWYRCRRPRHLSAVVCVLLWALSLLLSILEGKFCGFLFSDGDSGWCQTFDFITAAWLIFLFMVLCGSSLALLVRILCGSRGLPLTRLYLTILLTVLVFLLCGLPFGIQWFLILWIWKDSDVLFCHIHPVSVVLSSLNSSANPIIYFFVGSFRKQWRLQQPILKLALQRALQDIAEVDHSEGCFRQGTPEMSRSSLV
For orientation: A change in cytosolic calcium serves as a functional read-out for many receptors and channels.

Another experiment addresses human MRGX2 receptor (Homo sapiens (Human), UniProt Q96LB1). In words: In vitro radioligand binding assay (Kd). The conditions noted are these: membrane from SF9 cells overexpressing human MRGX2; 3H-labeled ligand; pH 7.4, room temperature, 60 minutes. The procedure: In vitro Radioligand Binding Assay (Kd)
Equilibrium dissociation constants, Kd, for many of the compounds described in the Examples section (“test compounds”) are determined in the presence cellular membrane prepared from SF9 cell lines overexpressing the human MRGX2 receptor. The assay is carried out in a 96-well plate (Greiner V-Bottom #651201). […] The assay mixtures, which comprise MRGX2 receptor, radiolabeled ligand and test compound, are incubated at room temperature (˜22° C.) for 60 minutes to reach equilibrium. After incubation, the assay mixtures are collected on a filter mat (Filtermat A, Perkin Elmer) using a cell harvester (Harvester 96, TOMTEC). The filter mat is completely dried. A solid scintillant (Meltilex, Perkin Elmer) is added to each filter membrane and the level of radioactivity (“Signal”) from each well (assay mixture) is recorded using a scintillation counter (Trilux Microbeta, PerkinElmer). Kd is determined by curve-fitting the dose response data ([I], Signal) for each set of samples to the equation,
[formula] where [I] is the concentration of the test compound. The data are reported as pKd

Sequence of human MRGX2 receptor (Q96LB1 whole entry): as above

As to `Cc1nn(C)cc1-c1cccc2c1NC(Nc1ccc(C(C)C)cc1)=NS2(=O)=O` [Example 103, 5-(1,3-dimethyl-1H-pyrazol-4-yl)-3-((4-isopropylphenyl)amino)-4H-benzo[e][1,2,4]thiadiaazne 1,1-dioxide], the EC50 in experiment [1] was 51.2 nM. On human MRGX2 receptor, the “hMRGX2 Binding Affinity (pKd)” value turned out to be 6.755.
Turning to `CC(C)c1ccc(NC2=NS(=O)(=O)c3cccc(-c4cnn(C5CCC5)c4)c3N2)cc1` [Example 105, 5-(1-cyclobutyl-1H-pyrazol-4-yl)-3-((4-isopropylphenyl)amino)-4H-benzo[e][1,2,4]thiadiazine 1,1-dioxide], the EC50 in experiment [1] is 119 nM. In addition, the “hMRGX2 Binding Affinity (pKd)” value at human MRGX2 receptor is 6.06.
Turning to `CC(C)c1ccc(NC2=NS(=O)(=O)c3cccc(-c4cnn(C)c4)c3N2)cc1` [Example 107, 3-((4-isopropylphenyl)amino)-5-(1-methyl-1H-pyrazol-4-yl)-4H-benzo[e][1,2,4]thiadiazine 1,1-dioxide], in experiment [1], the EC50 is 132 nM. Further, the “hMRGX2 Binding Affinity (pKd)” value on human MRGX2 receptor is 6.52.
The corresponding values for `CC(C)c1ccc(NC2=NS(=O)(=O)c3cccc(C4CC4)c3N2)cc1` [Example 109, 5-cyclopropyl-3-((4-isopropylphenyl)amino)-4H-benzo[e][1,2,4]thiadiazine 1,1-dioxide] are 106 nM and 6.575.
As to `Cc1c(-c2cccc3c2NC(Nc2ccc(C(C)C)cc2)=NS3(=O)=O)cnn1C` [Example 114, 5-(1,5-dimethyl-1H-pyrazol-4-yl)-3-((4-isopropylphenyl)amino)-4H-benzo[e][1,2,4]thiadiazine 1,1-dioxide], the EC50 in experiment [1] was 262 nM. Moreover, the “hMRGX2 Binding Affinity (pKd)” value on human MRGX2 receptor worked out at 6.095.
The corresponding values for `COCCNC1=NS(=O)(=O)c2cccc(-c3cccc(F)c3C#N)c2N1` [Example 125, 2-fluoro-6-(3-((2-methoxyethyl)amino)-1,1-dioxido-4H-benzo[e][1,2,4]thiadiazin-5-yl)benzonitrile] are 78.2 nM and 6.545.
In the case of `CCc1ccc(NC2=NS(=O)(=O)c3cccc(-c4cnn(C)c4)c3N2)cc1` [Example 136, 3-((4-ethylphenyl)amino)-5-(1-methyl-1H-pyrazol-4-yl)-4H-benzo[e][1,2,4]thiadiazine 1,1-dioxide], the EC50 in experiment [1] is 119 nM. The “hMRGX2 Binding Affinity (pKd)” value at human MRGX2 receptor worked out at 6.535.
With `Cc1ccccc1-c1cccc2c1NC(NCc1ccco1)=NS2(=O)=O` [Example 137, 3-((furan-2-ylmethyl)amino)-5-(o-tolyl)-4H-benzo[e][1,2,4]thiadiazine 1,1-dioxide], the EC50 in experiment [1] was 79.1 nM. Further, the “hMRGX2 Binding Affinity (pKd)” value at human MRGX2 receptor worked out at 6.54.
As to `O=S1(=O)N=C(NCCF)Nc2c(-c3cccc(F)c3Cl)cccc21` [Example 147, 5-(2-chloro-3-fluorophenyl)-3-((2-fluoroethyl)amino)-4H-benzo[e][1,2,4]thiadiazine 1,1-dioxide], the EC50 in experiment [1] was 51.1 nM. Moreover, the “hMRGX2 Binding Affinity (pKd)” value on human MRGX2 receptor worked out at 6.67.
The corresponding values for `Cc1ccccc1-c1cccc2c1NC(NCc1ccccn1)=NS2(=O)=O` [Example 162, 3-((pyridin-2-ylmethyl)amino)-5-(o-tolyl)-4H-benzo[e][1,2,4]thiadiazine 1,1-dioxide] are 100 nM and 6.51.
Regarding `COCc1cccc2c1NC(Nc1ccc(C(C)C)cc1)=NS2(=O)=O` [Example 169, 3-((4-isopropylphenyl)amino)-5-(methoxymethyl)-4H-benzo[e][1,2,4]thiadiazine 1,1-dioxide], the EC50 in experiment [1] is 474 nM. The “hMRGX2 Binding Affinity (pKd)” value at human MRGX2 receptor was 5.95.
